Measured values from patent publication US20160271094A1, “Laquinimod Combination Therapy For Treatment Of Multiple Sclerosis” (priority 2013, published 2016).
Where a name gives a salt, the structure may show the parent alone.

Columns and labels:
Assay type in all cases: in vivo, mouse (C57BL/6)
[1] = tested on: MOG induced EAE; assay: Example 1C: suboptimal dose of laquinimod combined with MEF or EMF in MOG induced EAE; settings: for Group Mean Score / Incidence % inhibition / Incidence Total / Mean Disease Duration / Mean Maximal Score / Mean Onset days / Mortality Total % / GMS Inhibition % / MMS Inhibition %: study interrupted on day 21; for GMS Inhibition % / MMS Inhibition %: vs vehicle
[2] = tested on: MOG-induced EAE; assay: Example 1A: laquinimod alone or in combination with DMF in MOG-induced EAE (present tense)
[3] = tested on: MOG induced EAE; assay: Example 1B: laquinimod in combination with DMF in MOG-induced EAE; settings: Day 1 to 30; for % Inhibition 2: according to MMS; for % Inhibition 2 / % Inhibition 1 / % Inhibition 3: vs vehicle; for % Inhibition 1: according to incidence; for % Inhibition 3: activity according to GMS; for GMS value: group mean score; for MMS value: mean maximal score
[4] = MEF 90 mg/kg gavage twice a day from Day 1
[5] = EMF 135 mg/kg gavage twice a day from Day 1
[6] = EMF 135 mg/kg gavage twice a day from Day 1, listed as EFM
[7] = DMF 45 mg/kg gavage bid (90 mg/kg/day)
[8] = laquinimod 5 mg/kg/day gavage (AM) from Day 1
[9] = laquinimod 25 mg/kg/day gavage (AM) from Day 1, positive control
[10] = laquinimod 5 mg/kg/day gavage qd
[11] = laquinimod 10 mg/kg/day gavage qd
[12] = laquinimod 25 mg/kg/day gavage qd

CCOC(=O)/C=C/C(=O)O [MEF, monoethyl fumarate]
Group Mean Score [1, 4]: 1.23 ± 0.2
Incidence % inhibition [1, 4]: 20%
Incidence Total [1, 4]: 12/15
Mean Disease Duration [1, 4]: 7.1 ± 1.0 days
Mean Maximal Score [1, 4]: 2.3 ± 0.38
Mean Onset days [1, 4]: 14.7 ± 1.0 days
Mortality Total % [1, 4]: 0%
alleviation of EAE disease signs (conclusion) ([1]; MEF at 90 mg/kg): not effective
GMS Inhibition % [1, 4]: 26.8%
MMS Inhibition % [1, 4]: −21.1%
GMS Inhibition % ([1]; MEF 90 mg/kg gavage twice a day from Day 1, listed as Mono EF): −26.8%

CCOC(=O)/C=C/C(=O)OC [EMF, ethyl methyl fumarate]
Group Mean Score [1, 5]: 0.51 ± 0.2
Incidence % inhibition [1, 5]: 46.6%
Incidence Total [1, 5]: 8/15
Mean Disease Duration [1, 5]: 3.3 ± 0.9 days
Mean Maximal Score [1, 5]: 1.2 ± 0.38
Mean Onset days [1, 5]: 18.4 ± 1.0 days
Mortality Total % [1, 5]: 0%
Incidence % inhibition [1, 6]: 46.7%
effectiveness in MOG induced EAE (conclusion) ([1]; EMF at 135 mg/kg BID alone): highly effective
GMS Inhibition % [1, 5]: 47.7%
MMS Inhibition % [1, 5]: 36.8%
GMS Inhibition % [1, 6]: 47.4%

COC(=O)/C=C/C(=O)OC [DMF, dimethyl fumarate]
inhibition of disease severity ([2]; DMF 25 mg/kg oral QD alone): moderately effective
Incidence [3, 7]: 13/15
Mean Duration [3, 7]: 13.4 ± 6.2 days
Mean Onset [3, 7]: 17.1 ± 6.3 days
Mortality [3, 7]: 0/15
% Inhibition 2 [3, 7]: 25.7%
% Inhibition 1 [3, 7]: 13.3%
% Inhibition 3 [3, 7]: 33.3%
GMS value [3, 7]: 1.4 ± 0.9
MMS value [3, 7]: 2.6 ± 1.4

CCN(C(=O)c1c(O)c2c(Cl)cccc2n(C)c1=O)c1ccccc1 [Laquinimod, laquinimod]
inhibition of disease severity ([2]; laquinimod 0.06 mg/kg oral QD alone): moderately effective
Group Mean Score [1, 8]: 0.64 ± 0.2
Incidence % inhibition [1, 8]: 46.7%
Incidence Total [1, 8]: 8/15
Mean Disease Duration [1, 8]: 4.0 ± 1.2 days
Mean Maximal Score [1, 8]: 1.3 ± 0.4
Mean Onset days [1, 8]: 17.3 ± 1.24 days
Mortality Total % [1, 8]: 0%
Incidence % inhibition [1, 9]: 93.3%
Incidence Total [1, 9]: 1/15
Mean Disease Duration [1, 9]: 0.3 ± 0.3 days
Mean Maximal Score [1, 9]: 0.1 ± 0.06
Mean Onset days [1, 9]: 21.5 ± 0.5 days
Mortality Total % [1, 9]: 0%
EAE clinical signs (conclusion) ([1]; laquinimod at 25 mg/kg): significantly ameliorated EAE clinical signs
efficacy in MOG-induced EAE (conclusion) ([1]; laquinimod at 5 and 25 mg/kg): dose-dependent efficacy
GMS Inhibition % [1, 8]: 34.0%
MMS Inhibition % [1, 8]: 31.6%
GMS Inhibition % [1, 9]: 97.9%
MMS Inhibition % [1, 9]: 94.7%
% Inhibition 2 [3, 10]: 40.0%
% Inhibition 2 [3, 11]: 82.9%
% Inhibition 2 [3, 12]: 100.0%
% Inhibition 1 [3, 10]: 33.3%
% Inhibition 1 [3, 11]: 73.3%
% Inhibition 1 [3, 12]: 100.0%
% Inhibition 3 [3, 10]: 61.9%
% Inhibition 3 [3, 11]: 90.5%
% Inhibition 3 [3, 12]: 100%
GMS value [3, 10]: 0.8 ± 0.7
GMS value [3, 11]: 0.2 ± 0.5
GMS value [3, 12]: 0.0 ± 0.0
Incidence [3, 10]: 10/15
Mean Duration [3, 10]: 8.0 ± 6.2 days
Mean Onset [3, 10]: 22.7 ± 6.4 days
Mortality [3, 10]: 0/15
Incidence [3, 11]: 4/15
Mean Duration [3, 11]: 1.8 ± 3.7 days
Mean Onset [3, 11]: 28.9 ± 3.8 days
Mortality [3, 11]: 0/15
Incidence [3, 12]: 0/15
Mean Duration [3, 12]: 0.0 ± 0.0 days
Mean Onset [3, 12]: 0.0 ± 0.0 days
Mortality [3, 12]: 0/15
MMS value [3, 10]: 2.1 ± 1.7
MMS value [3, 11]: 0.6 ± 0.2
MMS value [3, 12]: 0.0 ± 0.0
